Results published in patent publication US12201610B2, “Compositions comprising aticaprant” (Janssen Pharmaceuticals, Inc., priority 2022, dated 2025).

Tested on: subjects with MDD
Experiment: MADRS total score, adjunctive aticaprant vs placebo in MDD (Example 6)
Settings: for MADRS LSMeans difference estimate, supplementary analysis of data collected prior to 15 Mar. 2020 (COVID-19): MMRM
[1] = eITT, Treatment Week 6, 10 mg adjunctive to SSRI/SNRI
[2] = fITT Analysis Set, High anhedonia, Treatment Week 1
[3] = fITT Analysis Set, High anhedonia, Treatment Week 3
[4] = fITT Analysis Set, High anhedonia, Treatment Week 4
[5] = fITT Analysis Set, High anhedonia, Treatment Week 5
[6] = fITT Analysis Set, High anhedonia, Treatment Week 6
[7] = fITT Analysis Set, Low anhedonia, Treatment Week 1
[8] = fITT Analysis Set, Low anhedonia, Treatment Week 3
[9] = fITT Analysis Set, Low anhedonia, Treatment Week 4
[10] = fITT Analysis Set, Low anhedonia, Treatment Week 5
[11] = fITT Analysis Set, Low anhedonia, Treatment Week 6
[12] = fITT, Treatment Week 1, 10 mg adjunctive to SSRI/SNRI
[13] = fITT, Treatment Week 3, 10 mg adjunctive to SSRI/SNRI
[14] = fITT, Treatment Week 4, 10 mg adjunctive to SSRI/SNRI
[15] = fITT, Treatment Week 5, 10 mg adjunctive to SSRI/SNRI
[16] = fITT, Treatment Week 6, 10 mg adjunctive to SSRI/SNRI
[17] = fITT, Treatment Week 6, high anhedonia level
[18] = fITT, Treatment Week 6, low anhedonia level

Cc1cc(C)cc(C2CCCN2Cc2ccc(Oc3ccc(C(N)=O)cc3F)cc2)c1 (centres unmarked) [aticaprant, 3-fluoro-4-4-2-(3,5-dimethylphenyl)pyrrolidin-1-yl-methylphenoxybenzamide]
percentage of subjects with ≥50% improvement in MADRS total score (eITT, Treatment Week 6): 35.6%
MADRS Total Score Change from Baseline LSMean (SE), MMRM [1]: −10.1
MADRS Total Score Mean (SD) [1]: 18.6
MADRS Total Score Mean Change from Baseline (SD) [1]: −10.2 (8.44)
MADRS Total Score Mean Change to Placebo (SD pooled) [1]: −2.0 (8.49)
MADRS total score change, difference between aticaprant and placebo (eITT, Treatment Week 6, high anhedonia level (SHAPS total score ≥38 at treatment baseline)): −3.4
MADRS total score observed effect size (eITT, Treatment Week 6, high anhedonia level (SHAPS ≥38)): 0.38
MADRS total score observed effect size (eITT, Treatment Week 6, low anhedonia level (20≤ SHAPS <38)): 0.11
MADRS total score change, difference between aticaprant and placebo (eITT, Treatment Week 6, low anhedonia level (20≤ baseline SHAPS total score <38)): −0.9
MADRS Total Score Effect size (eITT, Treatment Week 6, vs placebo, negative favors aticaprant): 0.23
MADRS Total Score Effect size (eITT, Treatment Week 6, vs placebo, negative favors aticaprant, listed as Aticaprant): −0.23
MADRS LSMeans difference estimate, supplementary analysis of data collected prior to 15 Mar. 2020 (COVID-19) (eITT, vs placebo): −3.0
MADRS Total Score Effect size [2]: −0.45
MADRS Total Score Mean Change from Baseline (SD) [2]: −4.4 (5.04)
MADRS Total Score Mean Change to Placebo (SD pooled) [2]: −2.0 (4.38)
MADRS Total Score Effect size [3]: −0.54
MADRS Total Score Mean Change from Baseline (SD) [3]: −6.9 (6.66)
MADRS Total Score Mean Change to Placebo (SD pooled) [3]: −3.8 (6.94)
MADRS Total Score Effect size [4]: −0.50
MADRS Total Score Mean Change from Baseline (SD) [4]: −8.6 (7.32)
MADRS Total Score Mean Change to Placebo (SD pooled) [4]: −3.8 (7.56)
MADRS Total Score Effect size [5]: −0.51
MADRS Total Score Mean Change from Baseline (SD) [5]: −10.2 (8.04)
MADRS Total Score Mean Change to Placebo (SD pooled) [5]: −4.0 (7.87)
MADRS Total Score Effect size [6]: −0.51
MADRS Total Score Mean Change from Baseline (SD) [6]: −11.3 (8.69)
MADRS Total Score Mean Change to Placebo (SD pooled) [6]: −4.6 (9.03)
MADRS Total Score Effect size [7]: −0.24
MADRS Total Score Mean Change from Baseline (SD) [7]: −2.4 (4.59)
MADRS Total Score Mean Change to Placebo (SD pooled) [7]: −1.0 (4.39)
MADRS Total Score Effect size [8]: −0.08
MADRS Total Score Mean Change from Baseline (SD) [8]: −4.1 (6.67)
MADRS Total Score Mean Change to Placebo (SD pooled) [8]: −0.5 (6.37)
MADRS Total Score Effect size [9]: −0.23
MADRS Total Score Mean Change from Baseline (SD) [9]: −6.4 (6.77)
MADRS Total Score Mean Change to Placebo (SD pooled) [9]: −1.5 (6.65)
MADRS Total Score Effect size [10]: −0.10
MADRS Total Score Mean Change from Baseline (SD) [10]: −7.3 (6.90)
MADRS Total Score Mean Change to Placebo (SD pooled) [10]: −0.7 (6.86)
MADRS Total Score Effect size [11]: −0.29
MADRS Total Score Mean Change from Baseline (SD) [11]: −8.8 (7.48)
MADRS Total Score Mean Change to Placebo (SD pooled) [11]: −2.3 (7.80)
MADRS Total Score Change from Baseline Mean (SD) [12]: −3.1
MADRS Total Score Mean (SD) [12]: 21.7
MADRS Total Score Mean Change to Placebo (SD pooled) [12]: −1.3 (4.43)
MADRS Total Score Effect size (fITT, Treatment Week 1, vs placebo, negative favors aticaprant): −0.29
MADRS Total Score Change from Baseline Mean (SD) [13]: −5.1
MADRS Total Score Mean (SD) [13]: 20.0
MADRS Total Score Mean Change to Placebo (SD pooled) [13]: −1.7 (6.62)
MADRS Total Score Effect size (fITT, Treatment Week 3, vs placebo, negative favors aticaprant): −0.26
MADRS Total Score Change from Baseline Mean (SD) [14]: −7.2
MADRS Total Score Mean (SD) [14]: 17.9
MADRS Total Score Mean Change to Placebo (SD pooled) [14]: −2.3 (7.02)
MADRS Total Score Effect size (fITT, Treatment Week 4, vs placebo, negative favors aticaprant): −0.32
MADRS Total Score Change from Baseline Mean (SD) [15]: −8.3
MADRS Total Score Mean (SD) [15]: 16.7
MADRS Total Score Mean Change to Placebo (SD pooled) [15]: −1.9 (7.31)
MADRS Total Score Effect size (fITT, Treatment Week 5, vs placebo, negative favors aticaprant): −0.26
percentage of subjects with MADRS remission (MADRS total score ≤10) (fITT, Treatment Week 6): 31.2%
percentage of subjects with ≥30% improvement in MADRS total score (fITT, Treatment Week 6): 61.8%
percentage of subjects with ≥50% improvement in MADRS total score (fITT, Treatment Week 6): 38.2%
MADRS Total Score Mean (SD) [16]: 15.9
MADRS Total Score Mean Change to Placebo (SD pooled) [16]: −3.0 (8.31)
MADRS total score change, difference between aticaprant and placebo [17]: −4.6
MADRS total score observed effect size [17]: 0.51
MADRS total score change, difference between aticaprant and placebo [18]: −2.3
MADRS total score observed effect size [18]: 0.29
MADRS Total Score Effect size (fITT, Treatment Week 6, vs placebo, negative favors aticaprant): 0.36
MADRS Total Score Effect size (fITT, Treatment Week 6, vs placebo, negative favors aticaprant, listed as Aticaprant): −0.36
onset of significant treatment effect favoring aticaprant (MADRS least squares mean change, FIG. 10-B) (fITT, vs placebo): 3 week
MADRS LSMeans difference estimate, supplementary analysis of data collected prior to 15 Mar. 2020 (COVID-19) (fITT, vs placebo): −3.4
